The subject of assay [1] is L428 cells. Description: L428 xenograft in NSG mice, CD30 immunofluorescence of cytospin slides. It counts as in vivo. On the set-up: key to Spleen, red pulp activation, diffuse (CD30 staining score per animal) / Liver, Tumour cell infiltration (CD30 staining score per animal) / Bone marrow (CD30 staining score per animal): 0: without any staining; minimal, <1% staining; 2: mild, 1% staining; 3: moderate, <10% staining; marked, 10-40% staining; 5: severe, >40% of cells staining. From the text:
Immunodeficient NOD-SCID-gammac−/− (NSG) mice aged 5 to 6 weeks were purchased from Charles River (NOD.Cg-Prkdcscid II2rgtm1Wjl/SzJ). The mice arrived two weeks before the beginning of the experiments and were housed in micro-isolator cages during the entire course of the study. Immediately prior to the injection of Hodgkin lymphoma cells, mice were exposed to 3 Gy gamma irradiation using an IBL637 ^137Cs irradiator at a dose rate of 0.61 Gy/min. From 10^3 to 10^6 cells, either from the original cell lines or following amplification, were injected intravenously via the retro-orbital sinus. The mice were sacrificed by cervical dislocation and different organs were analysed and tumoural infiltration examined using multiple techniques.
Two independent experiments were performed to investigate the dose-effect of EDO-S101 in NSG mice eight weeks after xenografting with L428 cells as in Example 8. The aim of the protocol shown in FIG. […]
The mice were sacrificed by cervical dislocation. The sampled organs consisted of the eyes (site of injection), liver, spleen and bone marrow. Following dissection of different organs, including tumours, the first portion was used for flow cytometry (FACS) and cytogenetic analyses while the second was fixed in 4% paraformaldehyde (PFA) for immunohistochemistry (IHC). To obtain a single cell suspension, the tissues were first cut into pieces. Thereafter, the cells were physically disaggregated using an 80 μm nylon cell strainer and filtered a second time through a 70 μm nylon cell strainer (BD Biosciences, Erembodegem, Belgium).
Cells were cytospun onto poly-L-lysine-coated glass slides at 700 rpm for 4 min, fixed with 10% formalin for 10 min, and treated with 0.25% Triton X-100 solution for 10 min. After blocking with 5% bovine serum albumin (Sigma), the cells were incubated with an anti-CD30 antibody (DAKO A/S, Glostrup, Denmark). Then, cells were treated with Cyanine 3 anti-mouse IgG (Invitrogen, Carlsbad, CA). As a negative control, staining was carried out in the absence of primary antibody. The L428-s cell line served as positive control.
Individual microscopic findings following immunofluorescence CD30 staining of cytopsin slides: “0”=without any staining; “1”=minimal, <1% staining; “2”=mild, 1% staining; “3”=moderate, <10% staining; “4”=marked, 10-40% staining; “5”=severe, >40% of cells staining.

In assay [2] the test system is L540. Description: Mitotic index, L540. It counts as cell-based, human. On the procedure:
(§1) The mitotic index and chromosomal aberrations for each of the cell lines were evaluated after treatment with either 20 μmol or 10 μmol EDO-S101 in DMSO. Each cell line was cultured at 37° C. in the presence of RPMI 1640 supplemented with 10% FCS and antibiotics. Colcemid (0.1 ug/ml) was added 2 h before harvesting and slides with chromosomes in metaphase were prepared following the standard methanol/acetic acid (3/1, v/v) procedure. The slides were stored at −20° C. until use.
(§2) FISH was performed using a combination of standard procedures from the recommended protocols for chromosome analysis, following telomere and centromere staining, using PNA probes. In all, 100 metaphases were scored per in vitro dose exposure.
(§3) The mitotic index was determined by measurement of the sum of all cells in prophase, metaphase, anaphase and telophase divided by the total number of cells.

The test system of assay [3] is L1236-R100, L1236/DMSO and L1236. Description: Viable cell count and IC50, three L1236 cell lines. It is filed as cell-based. The note with it: Homo sapiens, L-1236; all cell lines tested, including R100. How it is done: • (a) Five Hodgkin lymphoma cell lines (KMH2, HDML2, L540, L1236 and L426) were cultured separately in the presence of bendamustine, vorinostat and EDO-S101 dissolved in DMSO at 37° C. L1236-derived Hodgkin lymphoma cell lines were selected as they have an acquired stable resistance to bendamustine (R100) or an ability to display continuous growth upon extended exposure to sub-lethal concentrations of bendamustine (R25, R50 and R75). A detailed description of the L1236-R Hodgkin lymphoma cell lines is disclosed in De Filippi et al, ASH 2015, Abstract. #2479. In these tests, the L1236-100R bendamustine resistant strain was used. […] Control cells were cultured in the same final concentration of DMSO. The number of viable cells was assessed at 24, 48 and 72 hours through a Countess™ automated cell counter (Invitrogen), each experiment being repeated three times and the results given being the mean of the three results±SD.

Assay [4] deals with KMH2. Description: Mitotic index and chromosomal aberrations, KMH2. It counts as cell-based, human. On the procedure: as §1, §2, §3
Assay [5] concerns L540. The assay can be described thus: Clonogenic survival in methylcellulose, L540. It is filed as cell-based, human. To be noted: any dose (0.1, 0.5, 1, 10 and 20 μmol). How it is done: In all examples, the human Hodgkin lymphoma-derived cell lines L428, L428-c, KMH2, L591, L540, L1236, HDLM2 and SUP-HD were obtained from Dr Steffen Junker (Aarhus University Denmark). All cell lines were cultured in Gibco RPMI 1640 medium supplemented with Glutamax, 10% FBS and antibiotics at 37° C. […] The immunophenotype, P53 status and MSI characterization of the Hodgkin lymphoma cell lines was determined using anti-CD30, CD15, CD20 and CD14 antibodies.
This test was performed on four Hodgkin lymphoma cell lines (L428, L428s, KMH2 and L540). Each was cultured with EDO-S101 at doses of 0, 0.1, 0.5, 1, 10 and 20 μmol in DMSO. The cell lines were cultured in methylcellulose (Stem cell Technologies) at a concentration of 10^5/ml at 37° C. and 5% CO2. The surviving fraction was determined by measuring the viability of colonies generated before and after exposure. Only colonies with more than 50 cells were counted. Each data point represents the average and SD from three independent experiments performed in triplicate.

Molecules are shown by their SMILES.

Turning to `Cn1c(CCCCCCC(=O)NO)nc2cc(N(CCCl)CCCl)ccc21` [EDO-S101], the “Spleen, red pulp activation, diffuse (CD30 staining score per animal)” value in assay [1] (1*60 mg/kg) came out at 0; in assay [1] (1*80 mg/kg), 0; in assay [1] (2*60 mg/kg, 60 mg/kg), 0. The “Liver, Tumour cell infiltration (CD30 staining score per animal)” value in assay [1] (1*60 mg/kg, 60 mg/kg) is 0; in assay [1] (1*80 mg/kg), 0; in assay [1] (2*60 mg/kg, 60 mg/kg) it was 0. Besides, the “Bone marrow (CD30 staining score per animal)” value in assay [1] (2*60 mg/kg, 60 mg/kg) is given as 0. Further, in assay [1] (single dose of 80 mg/kg), the “tumour cells in organs (liver, spleen, bone marrow)” value is “No tumour cells were observed in any organs”. Moreover, the mitotic index result in assay [2] and in assay [4] was “very low mitotic index” each time. The IC50 in assay [3] was 1000 to 3000 nM. Moreover, in assay [4] (telomere and centromere staining), the “chromosomal aberrations in metaphase” value is “numerous chromosomal aberrations”. Also, the “clones observed (clonogenic survival)” value in assay [5] is recorded as “No clone was observed”.

As a reminder, the IC50 is the concentration that gives 50% inhibition.

Values taken from patent publication US12440475B2, “Hodgkin lymphoma therapy” (priority 2016, dated 2025).
